This note sets out measurements from ChEMBL document CHEMBL2417399, “Discovery of highly potent and selective D4 ligands by interactive SAR study” (Bioorg Med Chem Lett, 2013).

For one assay, the target named is D(1A) dopamine receptor (Homo sapiens, UniProt P21728). The assay can be described thus: Displacement of [3H]SCH23390 from human dopamine D1 receptor.
A further assay deals with D(1B) dopamine receptor (Homo sapiens, UniProt P21918). As to the kind of experiment: Binding affinity to human dopamine D5 receptor by radioligand binding assay.
The target of another assay is D(3) dopamine receptor (Homo sapiens, UniProt P35462). The assay can be described thus: Binding affinity to human dopamine D3 receptor by radioligand binding assay.
A further assay has as its target D(2) dopamine receptor (Homo sapiens, UniProt P14416). As to the kind of experiment: Displacement of [3H]spiperone from human dopamine D2 receptor. On the technique in general: Displacement assays read how much labelled ligand stays bound in the presence of the test substance.
Another assay concerns the target T1, D(4) dopamine receptor (Homo sapiens, UniProt P21917).
T1 sequence (P21917 whole entry): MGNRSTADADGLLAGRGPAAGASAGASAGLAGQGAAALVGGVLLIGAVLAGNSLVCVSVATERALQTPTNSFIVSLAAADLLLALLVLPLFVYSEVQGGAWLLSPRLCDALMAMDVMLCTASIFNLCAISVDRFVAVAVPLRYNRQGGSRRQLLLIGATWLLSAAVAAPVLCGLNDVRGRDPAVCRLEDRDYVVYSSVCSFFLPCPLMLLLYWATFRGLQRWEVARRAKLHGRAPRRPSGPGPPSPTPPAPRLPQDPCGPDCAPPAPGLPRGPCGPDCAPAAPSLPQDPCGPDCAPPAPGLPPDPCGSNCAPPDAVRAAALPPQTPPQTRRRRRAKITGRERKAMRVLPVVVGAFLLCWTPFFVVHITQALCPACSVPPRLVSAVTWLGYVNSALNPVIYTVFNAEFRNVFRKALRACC
The assay can be described thus: Binding affinity to human dopamine D4 receptor by radioligand binding assay.

For the next assay, the species on record is Homo sapiens. The assay can be described thus: Selectivity ratio of Ki for human dopamine D2 receptor to Ki for human dopamine D4 receptor.

Sequence of D(1B) dopamine receptor (P21918 whole entry): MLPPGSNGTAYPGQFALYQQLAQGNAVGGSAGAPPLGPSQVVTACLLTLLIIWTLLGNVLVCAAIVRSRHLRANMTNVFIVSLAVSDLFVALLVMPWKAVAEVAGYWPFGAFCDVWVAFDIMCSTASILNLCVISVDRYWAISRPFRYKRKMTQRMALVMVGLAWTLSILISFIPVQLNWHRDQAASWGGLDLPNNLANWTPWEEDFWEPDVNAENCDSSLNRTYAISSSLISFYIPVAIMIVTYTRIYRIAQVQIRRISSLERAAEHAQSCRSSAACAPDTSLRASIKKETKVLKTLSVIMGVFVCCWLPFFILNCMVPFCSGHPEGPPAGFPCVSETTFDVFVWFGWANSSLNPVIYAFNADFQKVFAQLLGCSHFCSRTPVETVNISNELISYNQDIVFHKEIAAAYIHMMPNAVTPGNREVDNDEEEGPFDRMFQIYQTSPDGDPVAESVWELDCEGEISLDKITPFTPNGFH
Sequence of D(3) dopamine receptor (P35462 whole entry): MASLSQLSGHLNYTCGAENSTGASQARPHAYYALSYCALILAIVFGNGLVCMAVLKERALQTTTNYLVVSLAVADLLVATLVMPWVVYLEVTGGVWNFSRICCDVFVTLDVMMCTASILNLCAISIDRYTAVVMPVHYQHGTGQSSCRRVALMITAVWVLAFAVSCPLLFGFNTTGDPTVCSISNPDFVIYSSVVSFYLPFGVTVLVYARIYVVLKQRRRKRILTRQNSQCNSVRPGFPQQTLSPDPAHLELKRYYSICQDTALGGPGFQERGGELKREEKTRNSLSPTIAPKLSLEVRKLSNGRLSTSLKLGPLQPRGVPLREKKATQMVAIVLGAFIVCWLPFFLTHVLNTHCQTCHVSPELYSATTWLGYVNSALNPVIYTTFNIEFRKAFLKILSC
Sequence of D(2) dopamine receptor (P14416 whole entry): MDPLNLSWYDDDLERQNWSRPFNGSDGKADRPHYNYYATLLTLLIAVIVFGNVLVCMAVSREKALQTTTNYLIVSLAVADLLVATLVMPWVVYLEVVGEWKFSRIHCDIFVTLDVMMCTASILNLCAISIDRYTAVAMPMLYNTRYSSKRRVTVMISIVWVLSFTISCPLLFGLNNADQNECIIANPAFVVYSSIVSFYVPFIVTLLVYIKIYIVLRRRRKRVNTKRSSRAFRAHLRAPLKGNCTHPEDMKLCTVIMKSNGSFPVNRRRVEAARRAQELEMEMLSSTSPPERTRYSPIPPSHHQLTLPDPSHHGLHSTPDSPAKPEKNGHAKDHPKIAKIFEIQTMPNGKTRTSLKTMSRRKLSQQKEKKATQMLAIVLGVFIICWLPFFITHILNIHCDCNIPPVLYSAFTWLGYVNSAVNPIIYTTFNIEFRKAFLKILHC
Sequence of D(1A) dopamine receptor (P21728 whole entry): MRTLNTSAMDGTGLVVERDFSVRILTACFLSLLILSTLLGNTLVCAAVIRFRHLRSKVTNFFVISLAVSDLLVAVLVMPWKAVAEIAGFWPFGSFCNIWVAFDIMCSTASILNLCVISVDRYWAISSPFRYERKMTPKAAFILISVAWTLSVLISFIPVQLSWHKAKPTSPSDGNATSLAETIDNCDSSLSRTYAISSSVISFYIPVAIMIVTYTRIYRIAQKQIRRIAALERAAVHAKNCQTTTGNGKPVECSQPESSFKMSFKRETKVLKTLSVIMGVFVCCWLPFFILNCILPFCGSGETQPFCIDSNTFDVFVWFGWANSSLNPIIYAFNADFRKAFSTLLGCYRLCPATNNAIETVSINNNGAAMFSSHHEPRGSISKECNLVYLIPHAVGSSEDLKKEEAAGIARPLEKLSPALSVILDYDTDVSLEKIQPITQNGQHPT

Take `Clc1cccc(N2CCN(Cc3csc4ccccc34)CC2)c1Cl`: the Ki at D(1A) dopamine receptor is greater than 10 µM; at D(1B) dopamine receptor, greater than 10 µM; on D(3) dopamine receptor it was 52.5 nM; at D(2) dopamine receptor, 383 nM; on D(4) dopamine receptor it was 22.5 nM.

On to `Clc1ccc(N2CCN(Cc3cc4ccccn4n3)CC2)cc1`, for which the Ki was 5000 nM on D(3) dopamine receptor, 3200 nM on D(2) dopamine receptor and 3.1 nM at D(4) dopamine receptor.

As for `Clc1cccc(N2CCN(Cc3cccnc3)CC2)c1Cl`, the Ki at D(1A) dopamine receptor was greater than 10 µM; on D(1B) dopamine receptor, greater than 10 µM; at D(3) dopamine receptor, 41 nM; on D(2) dopamine receptor, 327 nM; at D(4) dopamine receptor it was 4.4 nM.

As for `CCOc1ccccc1N1CCN(Cc2cccc3ccccc23)CC1`, the Ki at D(1A) dopamine receptor is greater than 10 µM; on D(1B) dopamine receptor it was greater than 10 µM; at D(3) dopamine receptor, 59 nM; on D(2) dopamine receptor, 264 nM; at D(4) dopamine receptor it was 2 nM.

Turning to `CCOc1ccccc1N1CCN(Cc2csc3ccccc23)CC1`, the Ki on D(1A) dopamine receptor is greater than 10 µM; on D(1B) dopamine receptor, greater than 10 µM; on D(3) dopamine receptor, 45.1 nM; on D(2) dopamine receptor, 219 nM; at D(4) dopamine receptor, 4.5 nM.

On to `Clc1cccc(N2CCN(Cc3cccc4ccccc34)CC2)c1Cl`, for which the Ki is greater than 10 µM at D(1A) dopamine receptor; greater than 10 µM on D(1B) dopamine receptor; 92 nM at D(3) dopamine receptor; 351 nM on D(2) dopamine receptor; 31 nM at D(4) dopamine receptor.

For the compound `CCOc1ccccc1N1CCN(Cc2cccs2)CC1`, the Ki on D(1A) dopamine receptor is greater than 10 µM; at D(1B) dopamine receptor it was greater than 10 µM; on D(3) dopamine receptor it was 112 nM; on D(2) dopamine receptor it was 162 nM; at D(4) dopamine receptor it was 3.9 nM. The Ratio Ki in the assay listed under Homo sapiens came out at 14.

With `CCOc1ccccc1N1CCN(Cc2cccnc2)CC1`, the Ki at D(1A) dopamine receptor is greater than 10 µM; at D(1B) dopamine receptor, greater than 10 µM; on D(3) dopamine receptor, 42 nM; at D(2) dopamine receptor, 255 nM; at D(4) dopamine receptor, 0.7 nM.

In the case of `Clc1cccc(N2CCN(Cc3c[nH]c4ccccc34)CC2)c1Cl`, the Ki on D(1A) dopamine receptor is greater than 10 µM; on D(1B) dopamine receptor, greater than 10 µM; at D(3) dopamine receptor, 123 nM; on D(4) dopamine receptor it was 6.2 nM.

Consider `CCOc1ccccc1N1CCN(Cc2c[nH]c3ccccc23)CC1`, for which the Ki at D(1A) dopamine receptor is greater than 10 µM; at D(1B) dopamine receptor, greater than 10 µM; on D(3) dopamine receptor it was 103 nM; on D(2) dopamine receptor, 473 nM; on D(4) dopamine receptor, 0.03 nM.

By Ki is commonly meant the dissociation constant of the complex between target and ligand, obtained from inhibition or displacement. Higher therefore signals a looser hold on the target.
